The values that follow come from patent USRE49687E1, “Thienopyrimidine and thienopyridine compounds and methods of use thereof” (The Regents of The University of Michigan, priority 2014, dated 2023).

One assay has as its target T1, menin-MLL interaction (Homo sapiens, UniProt O00255).
T1 sequence (O00255 1-610): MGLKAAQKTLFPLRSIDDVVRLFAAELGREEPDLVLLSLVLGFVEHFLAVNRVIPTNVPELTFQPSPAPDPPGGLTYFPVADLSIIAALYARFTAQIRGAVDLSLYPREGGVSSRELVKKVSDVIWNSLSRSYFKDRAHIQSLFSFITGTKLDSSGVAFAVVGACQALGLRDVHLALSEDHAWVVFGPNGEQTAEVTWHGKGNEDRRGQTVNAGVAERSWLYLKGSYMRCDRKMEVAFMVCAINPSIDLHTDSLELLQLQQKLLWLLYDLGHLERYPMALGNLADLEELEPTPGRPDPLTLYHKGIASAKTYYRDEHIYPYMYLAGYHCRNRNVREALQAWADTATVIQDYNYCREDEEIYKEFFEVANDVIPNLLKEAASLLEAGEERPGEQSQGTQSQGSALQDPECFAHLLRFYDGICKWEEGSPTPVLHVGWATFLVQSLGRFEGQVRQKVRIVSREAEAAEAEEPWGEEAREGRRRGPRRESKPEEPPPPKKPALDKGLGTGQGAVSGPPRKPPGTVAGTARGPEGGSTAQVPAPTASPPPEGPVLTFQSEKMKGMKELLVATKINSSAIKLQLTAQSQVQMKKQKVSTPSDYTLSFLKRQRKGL
Briefly: Fluorescence polarization (FP) competition assay of the menin-MLL interaction. Conditions: inhibition of the menin-MLL interaction; read-out: IC50 values for Table 1 inhibitors of menin. The assay is classed as binding.

The next assay deals with T2, menin (Homo sapiens, UniProt O00255).
T2 sequence (O00255 1-610): T1 sequence (O00255 1-610)
Briefly: Crystal structure of menin in complex with compound. Conditions: FIG. 1.

For assay [1], the system named is MV4; 11 cells (harboring MLL-AF4 fusion protein). Briefly: In vivo xenograft study with MV4;11 cells injected subcutaneously. Set-up: species or system CB17 SCID mice. Conditions: once daily, i.p., 25 mg/kg; treatment initiated when tumors reached ~100 mm^3. From the text: FIG. 3 depicts in vivo xenograft studies with MV4; 11 cells (harboring MLL-AF4 fusion protein) injected subcutaneously into CB17 SCID mice.
Efficacy Study in Mouse Xenograft Tumor Model.
Immunodeficient mice, such as 8-10 week-old female nude (nu/nu) mice, are used for in vivo efficacy studies in accordance with the guidelines approved by IACUC. Leukemia cells, such as human MV4-11 leukemia cells available from ATCC, are implanted subcutaneously via needle into female nude mice (5×10^6 cells/mouse). When the tumor reaches a size of approximately 100 mm^3 in mice, the tumor-bearing mice are randomly assigned to a vehicle control or compound treatment group (8 animals per group). Animals are treated with a compound of the present invention by oral gavage or intraperitoneal injection in an appropriate amount and frequency as can be determined by the skilled artisan without undue experimentation. Subcutaneous tumor volume in nude mice and mice body weight are measured twice weekly. Tumor volumes are calculated by measuring two perpendicular diameters with calipers (V=(length×width^2)/2). Percentage tumor growth inhibition (% TGI=1−[change of tumor volume in treatment group/change of tumor volume in control group]*100) is used to evaluate anti-tumor efficacy. Statistical significance is evaluated using a one-tailed, two sample t test. P<0.05 is considered statistically significant.

Several values for one entry are separate records, joined by “and”; a condition that tells them apart may be missing. Identical values can stand only once.

As for `C=CC(=O)N1CCN(CCCn2c(C#N)cc3cc(CN4CCC(Nc5ncnc6sc(CC(F)(F)F)cc56)CC4)ccc32)CC1` [Compound 2], at menin-MLL interaction, the IC50 is 30 to 100 nM.
The same measure, in the same setting: the result for `C=CC(=O)N1CCC2(CCN(CCn3c(C#N)cc4c(C)c(CN5CCC(Nc6ncnc7sc(CC(F)(F)F)cc67)CC5)ccc43)C2)C1` (stereo not shown) [Compound 172] reads 30 to 100 nM.
Still for that read-out and setting: the same measure for `Cc1c(CN2CCC(Nc3ncnc4sc(CC(F)(F)F)cc34)CC2)ccc2c1cc(C#N)n2CCN1CCC(NC(=O)/C=C/CN(C)C)CC1` [Compound 27]: below 30 nM.
Consider `Cc1c(CN2CCC(Nc3ncnc4sc(CC(F)(F)F)cc34)CC2)ccc2c1cc(C#N)n2CC(O)c1cccc(S(C)(=O)=O)c1` (stereo not shown) [Compound 197], for which the half-inhibitory concentration (IC50) at menin-MLL interaction lay within 30 to 100 nM.
Same read-out and setting: the result for `C=CS(=O)(=O)Nc1ccc(CCn2c(C#N)cc3c(C)c(CN4CCC(Nc5ncnc6sc(CC(F)(F)F)cc56)CC4)ccc32)cc1` [Compound 231] reads below 30 nM.
The same measure, in the same setting: the same measure for `Cc1c(CN2CCC(Nc3ncnc4sc(CC(F)(F)F)cc34)CC2)ccc2c1cc(C#N)n2CCc1ccc(N)c(S(C)(=O)=O)c1` [Compound 104]: 30 to 100 nM; for `C=CC(=O)NC1CCC(Cn2c(C#N)cc3c(C)c(CN4CCC(Nc5ncnc6sc(CC(F)(F)F)cc56)CC4)ccc32)C1` (stereo not shown) [Compound 219]: 30 to 100 nM; for `C#CC(=O)N1CCN(CCn2c(C#N)cc3c(C)c(CN4CCC(Nc5ncnc6sc(CC(F)(F)F)cc56)CC4)ccc32)CC1` [Compound 5]: 30 to 100 nM.
Same read-out and setting: the same measure for `Cc1c(CN2CCC(Nc3ncnc4sc(CC(F)(F)F)cc34)CC2)ccc2c1cc(C#N)n2CCc1cccc(P(C)(C)=O)c1` [Compound 204]: 30 to 100 nM; for `C=CC(=O)Nc1ccc(CCn2c(C#N)cc3c(C)c(CN4CCC(Nc5ncnc6sc(CC(F)(F)F)cc56)CC4)ccc32)cc1` [Compound 81, N-(4-(2-(2-cyano-4-methyl-5-((4-(6-(2,2,2-trifluoroethyl)thieno[2,3-d]pyrimidin-4-ylamino)piperidin-1-yl)methyl)-1H-indol-1-yl)ethyl)phenyl)acrylamide]: below 30 nM.
Take `Cc1c(CN2CCC(Nc3ncnc4sc(CC(F)(F)F)cc34)CC2)ccc2c1cc(C#N)n2CCN1CCC2(CCNC2)CC1` [Compound 169]: at menin-MLL interaction, the IC50 was in the range of 30 to 100 nM.
Same read-out and setting: the result for `C=CC(=O)N1CCN(CCn2c(C#N)cc3cc(CN4CCC(Nc5ccnc6sc(CC(F)(F)F)cc56)CC4)ccc32)CC1` [Compound 1] reads 30 to 100 nM.
Turning to `C=CC(=O)Nc1cccc(CCn2c(C#N)cc3c(C)c(CN4CCC(Nc5ncnc6sc(CC(F)(F)F)cc56)CC4)ccc32)c1` [Compound 190], on menin-MLL interaction, the half-inhibitory concentration (IC50) was 100 to 1000 nM.
Same read-out and setting: the result for `C=CS(=O)(=O)N1CC2CC1CN2CCn1c(C#N)cc2c(C)c(CN3CCC(Nc4ncnc5sc(CC(F)(F)F)cc45)CC3)ccc21` (stereo not shown) [Compound 17, 4-methyl-5-((4-((6-(2,2,2-trifluoroethyl)thieno[2,3-d]pyrimidin-4-yl)amino)piperidin-1-yl)methyl)-1-(2-(5-(vinylsulfonyl)-2,5-diazabicyclo[2.2.1]heptan-2-yl)ethyl)-1H-indole-2-carbonitrile] reads 100 to 1000 nM; that for `Cc1c(CN2CCC(Nc3ncnc4sc(CC(F)(F)F)cc34)CC2)ccc2c1cc(C#N)n2CCc1ccc(N)c(C#N)c1` [Compound 193], 100 to 1000 nM; that for `C=CC(=O)N1CC2CCC(C1)N2CCn1c(C#N)cc2c(C)c(CN3CCC(Nc4ncnc5sc(CC(F)(F)F)cc45)CC3)ccc21` [Compound 229], below 30 nM.
Still for that read-out and setting: the result for `C=CC(=O)NN1CCN(CCn2c(C#N)cc3c(C)c(CN4CCC(Nc5ncnc6sc(CC(F)(F)F)cc56)CC4)ccc32)CC1` [Compound 94] reads 30 to 100 nM; that for `C=CC(=O)N1CCCN(CCn2c(C#N)cc3c(C)c(CN4CCC(Nc5ncnc6sc(CC(F)(F)F)cc56)CC4)ccc32)CC1` [Compound 66], below 30 nM; that for `Cc1c(CN2CCC(Nc3ncnc4sc(CC(F)(F)F)cc34)CC2)ccc2c1cc(C#N)n2CCN1CC2CNCC2C1` (stereo not shown) [Compound 167], below 30 nM.
Consider `C=CS(=O)(=O)N1CCN(CCn2c(C#N)cc3c(C)c(CN4CCC(Nc5ncnc6sc(CC(F)(F)F)cc56)CC4)ccc32)CC1` [Compound 3, 4-methyl-1-(2-(4-vinylsulfonylpiperazin-1-yl)ethyl)-5-((4-((6-(2,2,2-trifluoroethyl)thieno[2,3-d]pyrimidin-4-yl)amino)piperidin-1-yl)methyl)-1H-indole-2-carbonitrile], for which, on menin, the “covalent binding of the compound to a Cys residue on menin” value is on record as “covalent binding of the compound to a Cys residue on menin”. The tumor volume result in assay [1] was “strong reduction of tumor volume”. The IC50 on menin-MLL interaction was below 30 nM.
Consider `C=CC(=O)Nc1ccc(CCn2c(C#N)cc3c(C)c(CN4CCC(Nc5ncnc6sc(CC(F)(F)F)cc56)CC4)ccc32)cc1P(=O)(CC)CC` [Compound 203], for which the 50% inhibitory concentration (IC50) at menin-MLL interaction was below 30 nM.
As to `C=CC(=O)Nc1ccc(C(O)Cn2c(C#N)cc3c(C)c(CN4CCC(Nc5ncnc6sc(CC(F)(F)F)cc56)CC4)ccc32)cc1` (stereo not shown) [Compound 101], on menin-MLL interaction, the IC50 is below 30 nM.
Same read-out and setting: the same measure for `C[Si](C)(C)CCOCn1c(P(C)(C)=O)cc2cc(CN3CCC(Nc4ncnc5sc(CC(F)(F)F)cc45)CC3)ccc21` [Compound 207]: above 1000 nM; for `C=CC(=O)Nc1ccc(C(O)Cn2c(C#N)cc3c(C)c(CN4CCC(Nc5ncnc6sc(CC(F)(F)F)cc56)CC4)ccc32)cn1` (stereo not shown) [Compound 112]: below 30 nM.
Same read-out and setting: the result for `Cc1c(CN2CCC(Nc3ncnc4sc(CC(F)(F)F)cc34)CC2)ccc2c1cc(C#N)n2CCN1CCC2(CCNC2)C1` (stereo not shown) [Compound 171] reads 30 to 100 nM.
In the case of `Cc1c(CN2CCC(Nc3ncnc4sc(CC(F)(F)F)cc34)CC2)ccc2c1cc(C#N)n2CCP(C)(C)=O` [Compound 218], the concentration for half-maximal inhibition (IC50) on menin-MLL interaction was 100 to 1000 nM.
Regarding `C=CS(=O)(=O)N1CC2CCC(C1)N2CCn1c(C#N)cc2c(C)c(CN3CCC(Nc4ncnc5sc(CC(F)(F)F)cc45)CC3)ccc21` [Compound 18], the half-maximal inhibitory concentration (IC50) at menin-MLL interaction is < 30 nM and 30 to 100 nM.
On the same count and under the same terms, the result for `C=CS(=O)(=O)N1CCC(CCn2c(C#N)cc3c(C)c(CN4CCC(Nc5ncnc6sc(CC(F)(F)F)cc56)CC4)ccc32)CC1` [Compound 8] reads below 30 nM; that for `C=CC(=O)Nc1cn(CCn2c(C#N)cc3c(C)c(CN4CCC(Nc5ncnc6sc(CC(F)(F)F)cc56)CC4)ccc32)cn1` [Compound 192], 100 to 1000 nM.

In general, IC50 refers to the point on the concentration scale where inhibition reaches its midpoint.
